Experimental data reported in ChEMBL document CHEMBL3351235, “β-amino-alcohol tethered 4-aminoquinoline-isatin conjugates: synthesis and antimalarial evaluation” (Eur J Med Chem, 2014).

Columns and labels:
[1] = Cytotoxicity against human HCT116 cells at 0.2 uM after 48 hrs by MTT assay relative to untreated control; conditions: hct-116, 48 h
[2] = Cytotoxicity against human HCT116 cells at 20 uM after 48 hrs by MTT assay relative to untreated control; conditions: hct-116, 48 h
[3] = Cytotoxicity against human HCT116 cells at 2 uM after 48 hrs by MTT assay relative to untreated control; conditions: hct-116, 48 h
[4] = tested on: Plasmodium falciparum; experiment: Antimalarial activity against chloroquine-resistant ring stage Plasmodium falciparum W2 assessed as parasitemia after 48 hrs by flow cytometry; type: functional, organism-based; conditions: W2, 48 h

Structure (SMILES): COc1cccc2c1C(=O)c1c(O)c3c(c(O)c1C2=O)C[C@@](O)(C(=O)CO)C[C@@H]3O[C@H]1C[C@H](N)[C@H](O)[C@H](C)O1 [DOXORUBICIN]
- INH [1]: 84%
- INH [2]: 79%
- INH [3]: 79%

Structure (SMILES): Cc1ccc2c(c1)C(=O)C(=O)N2CC(CO)NCCCNc1ccnc2cc(Cl)ccc12 (centres undefined)
- IC50 [4]: 302 nM

Structure (SMILES): O=C1C(=O)N(CC(CO)N2CCN(c3ccnc4cc(Cl)ccc34)CC2)c2ccc(Cl)cc21 (centres undefined)
- IC50 [4]: 1960 nM

Structure (SMILES): O=C1C(=O)N(CC(CO)NCCNc2ccnc3cc(Cl)ccc23)c2ccc(Cl)cc21 (centres undefined)
- INH [1]: 0%
- INH [2]: 88%
- IC50 [4]: 11.7 nM
- INH [3]: -11%

Structure (SMILES): O=C1C(=O)N(CC(CO)NCCNc2ccnc3cc(Cl)ccc23)c2ccc(F)cc21 (centres undefined)
- IC50 [4]: 488 nM

Structure (SMILES): O=C1C(=O)N(CC(CO)NCCNc2ccnc3cc(Cl)ccc23)c2ccccc21 (centres undefined)
- INH [1]: 0%
- INH [2]: 91%
- IC50 [4]: 24.9 nM
- INH [3]: 2%

Structure (SMILES): O=C1C(=O)N(CC(CO)NCCCCCCNc2ccnc3cc(Cl)ccc23)c2ccccc21 (centres undefined)
- IC50 [4]: 62.9 nM

Structure (SMILES): O=C1C(=O)N(CC(CO)NCCCCCCNc2ccnc3cc(Cl)ccc23)c2ccc(Cl)cc21 (centres undefined)
- IC50 [4]: 49.7 nM

Structure (SMILES): Cc1ccc2c(c1)C(=O)C(=O)N2CC(CO)N1CCN(c2ccnc3cc(Cl)ccc23)CC1 (centres undefined)
- IC50 [4]: 1220 nM

Structure (SMILES): O=C1C(=O)N(CC(CO)NCCCNc2ccnc3cc(Cl)ccc23)c2ccc(Cl)cc21 (centres undefined)
- INH [1]: 0%
- INH [2]: 46%
- IC50 [4]: 13.5 nM
- INH [3]: 2%

Structure (SMILES): O=C1C(=O)N(CC(CO)NCCCCNc2ccnc3cc(Cl)ccc23)c2ccccc21 (centres undefined)
- INH [1]: 0%
- INH [2]: 37%
- IC50 [4]: 48.7 nM
- INH [3]: -5%

Structure (SMILES): Cc1ccc2c(c1)C(=O)C(=O)N2CC(CO)NCCCCCCNc1ccnc2cc(Cl)ccc12 (centres undefined)
- IC50 [4]: 55.8 nM

Structure (SMILES): O=C1C(=O)N(CC(CO)N2CCN(c3ccnc4cc(Cl)ccc34)CC2)c2ccc(F)cc21 (centres undefined)
- IC50 [4]: 1850 nM

Structure (SMILES): C[C@@H]1CC[C@H]2[C@@H](C)C(=O)O[C@@H]3O[C@@]4(C)CC[C@@H]1[C@]32OO4 [ARTEMISININ]
- IC50 [4]: 4.37 nM

Structure (SMILES): O=C1C(=O)N(CC(CO)NCCCCNc2ccnc3cc(Cl)ccc23)c2ccc(Cl)cc21 (centres undefined)
- IC50 [4]: 101 nM

Structure (SMILES): Cc1ccc2c(c1)C(=O)C(=O)N2CC(CO)NCCCCNc1ccnc2cc(Cl)ccc12 (centres undefined)
- IC50 [4]: 58 nM

Structure (SMILES): O=C1C(=O)N(CC(CO)NCCCNc2ccnc3cc(Cl)ccc23)c2ccc(F)cc21 (centres undefined)
- INH [1]: -2%
- INH [2]: 66%
- IC50 [4]: 72.3 nM
- INH [3]: 12%

Structure (SMILES): O=C1C(=O)N(CC(CO)NCCCCNc2ccnc3cc(Cl)ccc23)c2ccc(F)cc21 (centres undefined)
- INH [1]: -1%
- INH [2]: 83%
- IC50 [4]: 45.3 nM
- INH [3]: 0%

Structure (SMILES): O=C1C(=O)N(CC(CO)NCCCCCCNc2ccnc3cc(Cl)ccc23)c2ccc(F)cc21 (centres undefined)
- IC50 [4]: 59.6 nM

Structure (SMILES): O=C1C(=O)N(CC(CO)N2CCN(c3ccnc4cc(Cl)ccc34)CC2)c2ccccc21 (centres undefined)
- IC50 [4]: 216 nM

Structure (SMILES): O=C1C(=O)N(CC(CO)NCCCNc2ccnc3cc(Cl)ccc23)c2ccccc21 (centres undefined)
- INH [1]: 2%
- INH [2]: 85%
- IC50 [4]: 75.5 nM
- INH [3]: -12%
